These results are taken from patent US10550124B2, “Atropisomerism for increased kinase inhibitor selectivity” (SAN DIEGO STATE UNIVERSITY RESEARCH FOUNDATION, priority 2015, dated 2020).

Each structure is given as a SMILES string.

Data set [1] is described as follows: Experimental measurement of the barriers to rotation (chiral HPLC). It is filed as physicochemical. The note with it: for Barrier to Rotation: calculated from kobs, Gibbs free energy equation; for Barrier to Rotation kobs: observed rate constant of racemization, in ethanol, heated at constant temperature, in s^-1 (unit assumed). How it is done:
Enantiomerically enriched atropisomeric pyrrolopyrimidine analogues were isolated via chiral HPLC (Daicel Chiralpak IA PN:80335, 3 mL/min, 80:20 or 50:50 hexanes:[…], 25° C.) and evaporated in vacuo. The enantiomerically enriched analogues were then dissolved in ethanol and placed in a sealed 2-dram vial and heated under constant temperature on an aluminum block. At each time point, an aliquot of the mixture was removed and quenched in an HPLC vial containing ice cold 80:20 hexanes:ethanol. Each sample was then injected into the chiral HPLC system (Daicel Chiralpak IA PN:80325, 1 mL/min, 80:20 or 50:50 hexanes:ethanol, 25° C.) and enantiomeric excess (ee) measured. The timepoint and enantiomeric excess (ee) data was then plotted in order to determine an observed rate constant, kobs, at the corresponding temperature. The barrier to rotation was then calculated using the relationship of kracemization=2*kenantiomerization and then substituted into the Gibbs Free Energy Equation:
[formula] where h=Planck Constant, kb=Boltzmann Constant, T=Temp. (K), R=Gas Constant.

The next data set has as its target Src kinase (Homo sapiens, UniProt P12931). Kind of data set: Z′-LYTE kinase inhibition assay, Src. Format: biochemical. The note with it: for IC50: Src, error is standard deviation. The text has this: Based on the observed stereochemical stabilities, we chose 1f, 2e, and 2f for further study and obtained inhibition data against Src kinase from Life Technologies' Z′-LYTE™ kinase assay (Scheme 3).
(§1) All samples were sent out to Life Technologies to obtain kinase inhibition data. A brief description of the assays and analyses are included below.
(§2) Assay Theory (SelectScreen® Kinase Profiling Services (Life Technologies, Madison, Wis. USA). The Z′-LYTE® biochemical assay employs a fluorescence-based, coupled-enzyme format and is based on the differential sensitivity of phosphorylated and non-phosphorylated peptides to proteolytic cleavage. The peptide substrate is labeled with two fluorophores one at each end—that make up a FRET pair.
(§3) In the primary reaction, the kinase transfers the gamma-phosphate of ATP to a single tyrosine, serine or threonine residue in a synthetic FRET-peptide. In the secondary reaction, a site-specific protease recognizes and cleaves non-phosphorylated FRET-peptides.
(§4) Phosphorylation of FRET-peptides suppresses cleavage by the Development Reagent. Cleavage disrupts FRET between the donor (i.e., coumarin) and acceptor (i.e., fluorescein) fluorophores on the FRET-peptide, whereas uncleaved, phosphorylated FRET-peptides maintain FRET. A ratiometric method, which calculates the ratio (the Emission Ratio) of donor emission to acceptor emission after excitation of the donor fluorophore at 400 nm, is used to quantitate reaction progress, as shown in the equation below: […]
(§5) A significant benefit of this ratiometric method for quantitating reaction progress is the elimination of well-to-well variations in FRET-peptide concentration and signal intensities. As a result, the assay yields very high Z′-factor values (>0.7) at a low percent phosphorylation. Both cleaved and uncleaved FRET-peptides contribute to the fluorescence signals and therefore to the Emission Ratio. The extent of phosphorylation of the FRET-peptide can be calculated from the Emission Ratio. The Emission Ratio will remain low if the FRET-peptide is phosphorylated (i.e., no kinase inhibition) and will he high if the FRET-peptide is non-phosphorylated (i.e., kinase inhibition).

The target of another data set is Kit (Homo sapiens, UniProt P10721). The experiment in a line: Z′-LYTE kinase inhibition assay, Kit. Format: biochemical. The settings on record: average of 2 runs.
Source text: as §1, §2, §3, §4, §5

For the next data set, the target named is Alk (Homo sapiens, UniProt Q9UM73). The experiment in a line: Z′-LYTE kinase inhibition assay, Alk. The note with it: average of 2 runs. It is filed as biochemical.
Source text: as §1, §2, §3, §4, §5

The next data set addresses Blk (Homo sapiens, UniProt P51451). Kind of data set: Z′-LYTE kinase inhibition assay, Blk. Format: biochemical. The settings on record: average of 2 runs.
Source text: as §1, §2, §3, §4, §5

In another data set the target is Fgr (Homo sapiens, UniProt P09769). Kind of data set: Z′-LYTE kinase inhibition assay, Fgr. Format: biochemical. The settings on record: average of 2 runs.
Source text: as §1, §2, §3, §4, §5

The next data set concerns the target Her-2 (Homo sapiens, UniProt P04626). Kind of data set: Z′-LYTE kinase inhibition assay, Her-2. Format: biochemical. The settings on record: average of 2 runs.
Source text: as §1, §2, §3, §4, §5

The target in another data set is Yes (Homo sapiens, UniProt P07947). Kind of data set: Z′-LYTE kinase inhibition assay, Yes. Format: biochemical.
Yes, sequence (P07947 whole entry): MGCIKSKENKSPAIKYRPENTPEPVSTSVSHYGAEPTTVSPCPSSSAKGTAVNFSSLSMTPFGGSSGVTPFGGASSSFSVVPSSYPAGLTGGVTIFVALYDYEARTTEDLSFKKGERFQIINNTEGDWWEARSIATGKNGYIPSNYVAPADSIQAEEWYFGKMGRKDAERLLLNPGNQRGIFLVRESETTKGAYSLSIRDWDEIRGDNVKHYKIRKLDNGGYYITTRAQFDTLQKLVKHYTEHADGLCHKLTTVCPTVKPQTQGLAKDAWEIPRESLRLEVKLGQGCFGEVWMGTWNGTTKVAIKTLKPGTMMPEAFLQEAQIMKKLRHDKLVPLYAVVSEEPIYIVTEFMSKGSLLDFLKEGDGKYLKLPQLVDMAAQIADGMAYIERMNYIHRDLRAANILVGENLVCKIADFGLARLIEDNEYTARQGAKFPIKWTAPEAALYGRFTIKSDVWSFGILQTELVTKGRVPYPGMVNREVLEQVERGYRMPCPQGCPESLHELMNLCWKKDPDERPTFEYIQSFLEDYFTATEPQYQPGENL
Source text: as §1, §2, §3, §4, §5

For the next data set, the target named is Lck (Homo sapiens, UniProt P06239). Kind of data set: Z′-LYTE kinase inhibition assay, Lck. Format: biochemical. The note with it: average of 2 runs.
Source text: as §1, §2, §3, §4, §5

The next data set concerns the target Ret (Homo sapiens, UniProt P07949). The experiment in a line: Z′-LYTE kinase inhibition assay, Ret. The note with it: for % inhibition: average of 2 runs. It is filed as biochemical.
Source text: as §1, §2, §3, §4, §5

For a further data set, the target named is Abl (Homo sapiens, UniProt P00519). Kind of data set: Z′-LYTE kinase inhibition assay, Abl. The settings on record: for % inhibition: average of 2 runs. Format: biochemical.
Abl, sequence (P00519 whole entry): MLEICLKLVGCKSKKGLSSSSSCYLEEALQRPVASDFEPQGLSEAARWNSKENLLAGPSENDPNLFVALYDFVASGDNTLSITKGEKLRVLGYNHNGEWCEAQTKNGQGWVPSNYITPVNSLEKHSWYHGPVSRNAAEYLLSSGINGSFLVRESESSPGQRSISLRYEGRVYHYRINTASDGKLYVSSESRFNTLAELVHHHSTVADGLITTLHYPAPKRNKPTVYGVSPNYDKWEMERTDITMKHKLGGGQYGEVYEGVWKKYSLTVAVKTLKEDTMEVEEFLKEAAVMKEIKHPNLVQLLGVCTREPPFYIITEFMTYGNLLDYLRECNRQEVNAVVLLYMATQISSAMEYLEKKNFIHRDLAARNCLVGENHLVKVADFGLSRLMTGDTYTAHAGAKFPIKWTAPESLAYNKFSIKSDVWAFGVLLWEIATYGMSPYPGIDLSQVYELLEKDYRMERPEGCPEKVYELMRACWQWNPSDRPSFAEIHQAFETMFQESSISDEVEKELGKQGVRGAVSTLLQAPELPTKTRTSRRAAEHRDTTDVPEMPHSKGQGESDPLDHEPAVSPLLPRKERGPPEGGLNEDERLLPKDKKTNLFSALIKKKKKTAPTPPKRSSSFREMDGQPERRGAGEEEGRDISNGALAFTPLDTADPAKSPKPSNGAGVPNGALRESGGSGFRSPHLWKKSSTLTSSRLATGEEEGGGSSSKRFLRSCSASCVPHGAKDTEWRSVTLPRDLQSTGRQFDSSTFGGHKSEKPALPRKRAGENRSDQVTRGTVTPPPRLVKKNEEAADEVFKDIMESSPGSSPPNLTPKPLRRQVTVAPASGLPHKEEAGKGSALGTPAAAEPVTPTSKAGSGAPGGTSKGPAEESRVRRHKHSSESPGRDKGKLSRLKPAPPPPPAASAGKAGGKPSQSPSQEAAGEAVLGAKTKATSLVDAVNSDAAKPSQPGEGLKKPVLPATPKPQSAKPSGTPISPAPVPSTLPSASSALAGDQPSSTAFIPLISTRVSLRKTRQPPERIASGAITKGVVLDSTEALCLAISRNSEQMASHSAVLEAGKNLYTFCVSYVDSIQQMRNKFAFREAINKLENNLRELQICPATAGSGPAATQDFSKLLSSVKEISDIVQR
Source text: as §1, §2, §3, §4, §5

The target of a further data set is Lyn (Homo sapiens, UniProt P07948). The experiment in a line: Z′-LYTE kinase inhibition assay, Lyn. Format: biochemical. The settings on record: average of 2 runs.
Source text: as §1, §2, §3, §4, §5

In another data set the target is EGFR (Homo sapiens, UniProt P00533). Kind of data set: Z′-LYTE kinase inhibition assay, EGFR. Format: biochemical. The settings on record: for % inhibition: average of 2 runs.
EGFR, sequence (P00533 25-1210): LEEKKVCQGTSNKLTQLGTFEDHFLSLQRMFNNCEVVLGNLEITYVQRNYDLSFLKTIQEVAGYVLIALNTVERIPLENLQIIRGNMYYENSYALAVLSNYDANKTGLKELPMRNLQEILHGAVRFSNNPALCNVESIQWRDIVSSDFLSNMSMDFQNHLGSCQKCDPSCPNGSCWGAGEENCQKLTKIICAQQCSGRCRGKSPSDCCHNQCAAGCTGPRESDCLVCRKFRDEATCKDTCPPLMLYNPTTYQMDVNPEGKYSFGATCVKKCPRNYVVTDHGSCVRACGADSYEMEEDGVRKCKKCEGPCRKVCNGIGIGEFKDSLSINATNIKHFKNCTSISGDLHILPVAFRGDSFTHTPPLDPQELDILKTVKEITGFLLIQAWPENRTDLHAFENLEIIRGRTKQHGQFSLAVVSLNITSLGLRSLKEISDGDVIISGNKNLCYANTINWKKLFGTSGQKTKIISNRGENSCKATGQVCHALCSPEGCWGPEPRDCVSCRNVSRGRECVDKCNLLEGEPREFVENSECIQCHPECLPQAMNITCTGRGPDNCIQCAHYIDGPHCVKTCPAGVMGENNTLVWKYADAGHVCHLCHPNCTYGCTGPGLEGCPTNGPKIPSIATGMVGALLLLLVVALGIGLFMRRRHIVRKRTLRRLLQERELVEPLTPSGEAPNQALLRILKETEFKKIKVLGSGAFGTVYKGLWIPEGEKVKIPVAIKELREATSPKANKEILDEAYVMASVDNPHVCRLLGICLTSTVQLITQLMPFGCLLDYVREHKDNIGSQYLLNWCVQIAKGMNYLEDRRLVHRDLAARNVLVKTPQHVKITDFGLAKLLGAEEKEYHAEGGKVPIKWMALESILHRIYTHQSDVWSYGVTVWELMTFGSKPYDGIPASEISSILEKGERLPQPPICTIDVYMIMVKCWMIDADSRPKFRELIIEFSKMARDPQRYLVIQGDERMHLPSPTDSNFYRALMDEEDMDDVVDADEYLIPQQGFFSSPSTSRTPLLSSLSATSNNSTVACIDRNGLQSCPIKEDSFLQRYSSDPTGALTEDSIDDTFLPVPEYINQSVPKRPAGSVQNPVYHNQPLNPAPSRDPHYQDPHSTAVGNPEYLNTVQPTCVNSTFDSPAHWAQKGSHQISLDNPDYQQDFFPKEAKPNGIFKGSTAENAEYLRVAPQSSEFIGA
Source text: as §1, §2, §3, §4, §5

In another data set the target is pdgfr-b (Homo sapiens, UniProt P09619). Kind of data set: Z′-LYTE kinase inhibition assay, pdgfr-b. It is filed as biochemical. The settings on record: average of 2 runs.
Source text: as §1, §2, §3, §4, §5

In data set [2] the test system is panel of 18 tyrosine kinases. The experiment in a line: Kinase inhibitor profiling across a panel of tyrosine kinases (selectivity). Format: biochemical. The settings on record: for S(40%): number of kinases inhibited greater than 40% divided by number of kinases tested (including Src). How it is done:
In order to probe the effect of atropisomeric conformation on kinase selectivity we subjected 1f, 2e, and 2f to kinase inhibitor profiling across a panel of tyrosine kinases at 1000 nM and 5000 nM (data for 2e shown in Scheme 4 below).
To analyze each analog's selectivity across the panel we turned to selectivity scores (Davis et al., Nat. Biotechnol. 2011, 29, 1046-51), simply the number of kinases inhibited above a certain threshold divided by the number of kinases evaluated. […] For example at 1000 nM 2e-(R) yielded an S(40%) of 0.11 while 2e-(S) gave an S(40%) of 0.16. […] Differences in selectivity between 2e-(R) and 2e-(S) at 5000 nM (4.5 times the IC50 of 2e-(S) toward Src) and for 5 at 1000 nM (6.25 times the IC50 of 5 toward Src) can be viewed graphically across tyrosine kinases (FIG. 3). Importantly, similar trends were also observed across each of the atropisomeric series tested.
as §1, §2, §3, §4, §5

The next data set has as its target CSK (Homo sapiens, UniProt P41240). The experiment in a line: Z′-LYTE kinase inhibition assay, CSK. It is filed as biochemical. The settings on record: average of 2 runs.
Source text: as §1, §2, §3, §4, §5

The target of another data set is pdgfr-a (Homo sapiens, UniProt P16234). The experiment in a line: Z′-LYTE kinase inhibition assay, pdgfr-a. Format: biochemical. The settings on record: average of 2 runs.
Source text: as §1, §2, §3, §4, §5

In another data set the target is Hck (Homo sapiens, UniProt P08631). The experiment in a line: Z′-LYTE kinase inhibition assay, Hck. Format: biochemical. The note with it: average of 2 runs.
Source text: as §1, §2, §3, §4, §5

A further data set addresses Fyn (Homo sapiens, UniProt P06241). The experiment in a line: Z′-LYTE kinase inhibition assay, Fyn. It is filed as biochemical. The settings on record: average of 2 runs.
Source text: as §1, §2, §3, §4, §5

The target of a further data set is BTK (Homo sapiens, UniProt Q06187). The experiment in a line: Z′-LYTE kinase inhibition assay, BTK. It is filed as biochemical. The note with it: average of 2 runs.
Source text: as §1, §2, §3, §4, §5

Ret, sequence (P07949 29-1114): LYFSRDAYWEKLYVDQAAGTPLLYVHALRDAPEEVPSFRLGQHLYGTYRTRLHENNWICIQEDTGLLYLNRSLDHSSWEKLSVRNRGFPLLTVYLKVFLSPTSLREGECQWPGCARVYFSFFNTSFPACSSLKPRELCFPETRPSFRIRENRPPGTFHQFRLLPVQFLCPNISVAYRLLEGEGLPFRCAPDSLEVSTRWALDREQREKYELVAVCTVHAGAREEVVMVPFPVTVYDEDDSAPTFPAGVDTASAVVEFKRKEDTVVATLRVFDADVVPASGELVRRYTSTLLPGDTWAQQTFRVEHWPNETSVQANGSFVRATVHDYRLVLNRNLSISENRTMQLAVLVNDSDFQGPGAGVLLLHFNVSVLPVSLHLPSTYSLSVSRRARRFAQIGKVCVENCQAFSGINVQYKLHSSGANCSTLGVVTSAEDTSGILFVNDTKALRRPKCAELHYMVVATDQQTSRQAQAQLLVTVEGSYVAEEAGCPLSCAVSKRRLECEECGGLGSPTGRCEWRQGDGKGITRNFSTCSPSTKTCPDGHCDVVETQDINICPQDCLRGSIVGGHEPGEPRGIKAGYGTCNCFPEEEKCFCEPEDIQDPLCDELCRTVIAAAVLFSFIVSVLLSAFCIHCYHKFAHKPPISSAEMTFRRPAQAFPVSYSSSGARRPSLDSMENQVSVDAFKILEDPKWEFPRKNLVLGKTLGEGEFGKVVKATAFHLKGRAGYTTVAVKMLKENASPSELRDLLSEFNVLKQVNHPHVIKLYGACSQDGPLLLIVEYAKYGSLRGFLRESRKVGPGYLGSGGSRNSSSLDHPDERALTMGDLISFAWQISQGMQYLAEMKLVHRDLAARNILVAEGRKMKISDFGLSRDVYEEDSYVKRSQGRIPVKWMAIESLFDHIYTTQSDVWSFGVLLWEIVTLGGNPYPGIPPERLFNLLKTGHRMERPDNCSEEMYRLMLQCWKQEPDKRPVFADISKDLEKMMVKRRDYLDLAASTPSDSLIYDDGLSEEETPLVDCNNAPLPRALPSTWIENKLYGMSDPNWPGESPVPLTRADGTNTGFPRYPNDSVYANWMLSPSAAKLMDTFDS
Src kinase, sequence (P12931 whole entry): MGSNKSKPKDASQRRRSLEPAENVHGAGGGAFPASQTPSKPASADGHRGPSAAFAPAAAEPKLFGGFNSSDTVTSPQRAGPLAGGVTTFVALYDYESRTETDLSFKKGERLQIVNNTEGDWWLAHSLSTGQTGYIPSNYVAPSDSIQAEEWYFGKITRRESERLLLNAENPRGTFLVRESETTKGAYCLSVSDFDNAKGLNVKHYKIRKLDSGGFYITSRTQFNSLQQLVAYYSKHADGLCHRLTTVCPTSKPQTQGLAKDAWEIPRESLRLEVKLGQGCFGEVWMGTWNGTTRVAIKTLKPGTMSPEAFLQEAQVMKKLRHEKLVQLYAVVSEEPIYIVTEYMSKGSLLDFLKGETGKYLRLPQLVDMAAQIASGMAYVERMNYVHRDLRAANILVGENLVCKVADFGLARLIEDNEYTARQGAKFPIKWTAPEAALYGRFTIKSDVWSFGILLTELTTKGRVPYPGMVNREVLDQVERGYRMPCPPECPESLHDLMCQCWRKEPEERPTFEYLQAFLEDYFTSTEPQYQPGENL
Fyn, sequence (P06241 whole entry): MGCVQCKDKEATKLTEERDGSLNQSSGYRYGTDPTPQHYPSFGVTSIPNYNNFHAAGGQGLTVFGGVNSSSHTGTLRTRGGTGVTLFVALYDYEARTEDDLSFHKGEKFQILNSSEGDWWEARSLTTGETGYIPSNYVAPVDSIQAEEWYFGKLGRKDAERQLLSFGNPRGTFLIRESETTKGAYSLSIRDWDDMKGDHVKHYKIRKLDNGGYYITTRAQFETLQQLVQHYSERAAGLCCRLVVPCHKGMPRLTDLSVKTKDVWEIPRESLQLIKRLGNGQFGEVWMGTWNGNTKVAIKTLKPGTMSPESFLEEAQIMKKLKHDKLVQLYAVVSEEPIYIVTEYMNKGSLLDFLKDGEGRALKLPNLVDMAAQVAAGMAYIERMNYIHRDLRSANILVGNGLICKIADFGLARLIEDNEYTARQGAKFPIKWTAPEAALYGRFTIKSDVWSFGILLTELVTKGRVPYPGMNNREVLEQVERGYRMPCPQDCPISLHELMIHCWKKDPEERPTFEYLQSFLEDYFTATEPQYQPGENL

With `COc1ccc(Br)c(-c2c(Cl)n(C3CCCC3)c3ncnc(N)c23)c1` (racemic) [Compound 1f, 5-(2-bromo-5-methoxyphenyl)-6-chloro-7-cyclopentyl-7H-pyrrolo[2,3-d]pyrimidin-4-amine], in data set [1], the “Barrier to Rotation” value is recorded as 29.0 kcal/mol and the “Barrier to Rotation kobs” value is recorded as 1.01E−05.
As to `COc1ccc(Cl)c(-c2c(Cl)n(C(C)(C)C)c3ncnc(N)c23)c1` (racemic) [Compound 2e, 7-(tert-butyl)-6-chloro-5-(2-chloro-5-methoxyphenyl)-7H-pyrrolo[2,3d]pyrimidin-4-amine], in data set [1], the “Barrier to Rotation” value is recorded as 28.6 kcal/mol and the “Barrier to Rotation kobs” value is 3.27E−05.
The matching figures for `COc1ccc(Br)c(-c2c(Cl)n(C(C)(C)C)c3ncnc(N)c23)c1` (racemic) [Compound 2f, 5-(2-bromo-5-methoxyphenyl)-7-(tert-butyl)-6-chloro-7H-pyrrolo[2,3-d]pyrimidin-4-amine]: 30.4 kcal/mol and 2.68E−05.
With `COc1ccc(Br)c(-c2c(Cl)n(C3CCCC3)c3ncnc(N)c23)c1` (single isomer, unassigned) [1f-(R), 5-(2-bromo-5-methoxyphenyl)-6-chloro-7-cyclopentyl-7H-pyrrolo[2,3-d]pyrimidin-4-amine], the half-inhibitory concentration (IC50) (as a rule, the concentration at which inhibition is half-maximal) against Src kinase is over 10 µM.
The same measure, in the same setting: the result for `COc1ccc(Br)c(-c2c(Cl)n(C3CCCC3)c3ncnc(N)c23)c1` (single isomer, unassigned) [1f-(S), 5-(2-bromo-5-methoxyphenyl)-6-chloro-7-cyclopentyl-7H-pyrrolo[2,3-d]pyrimidin-4-amine] reads 1.3 µM.
`COc1ccc(Cl)c(-c2c(Cl)n(C(C)(C)C)c3ncnc(N)c23)c1` (single isomer, unassigned) [2e-(R), 7-(tert-butyl)-6-chloro-5-(2-chloro-5-methoxyphenyl)-7H-pyrrolo[2,3d]pyrimidin-4-amine]: the % inhibition (commonly the relative decrease from the control value, in per cent) is recorded as 5% at Kit (1000 nM, 1 µM); 18% at Alk (5000 nM, 5 µM); 3% at Blk (1000 nM, 1 µM); −2% on Her-2 (1000 nM, 1 µM); 35% at Ret (Ret, 1000 nM, 1 µM); 73% at Ret (Ret, 5000 nM). Also, the “% inhibition” value at Ret (Ret, 5000 nM, 5 µM) was 73%; on Abl (Abl, 1000 nM, 1 µM), 11%; at Abl (Abl, 5000 nM), 26%; on Abl (Abl, 5000 nM, 5 µM), 26%; on EGFR (EGFR, 1000 nM, 1 µM), −4%; on EGFR (EGFR, 5000 nM, 5 µM) it was 0%. For the same molecule, the “% inhibition” value at pdgfr-b (1000 nM, 1 µM) came out at 4%; on BTK (5000 nM, 5 µM), 29%. Further, the inhibition (in general, the percentage by which the read-out fell short of the control) at 5 µM at Kit (5000 nM) amounted to 26%; against Blk (5000 nM), 32%; on Fgr (5000 nM), 77%; against Her-2 (5000 nM), 0%; at Yes (Yes, 5000 nM, average of 2 runs), 79%; at Lck (5000 nM) it was 51%. The inhibition at 5 µM at Lyn (5000 nM) was 57%; against pdgfr-b (5000 nM) it was 13%; against CSK (5000 nM), 35%; against pdgfr-a (5000 nM), 8%; at Hck (5000 nM) it was 40%; at Fyn (5000 nM) it was 44%. Further, the inhibition at 1 µM on Alk (1000 nM) worked out at 6%; at Fgr (1000 nM) it was 45%; at Yes (Yes, 1000 nM, average of 2 runs), 53%; against Lck (1000 nM) it was 23%; on Lyn (1000 nM), 19%; against CSK (1000 nM), 21%. Besides, the inhibition at 1 µM on pdgfr-a (1000 nM) turned out to be 3%; against Hck (1000 nM), 24%; against Fyn (1000 nM) it was 19%; against BTK (1000 nM) it was 10%. Further, the “IC50 of Kinase/IC50 of Yes” value on Yes (Yes relative to Yes) is reported as 1; at Ret (Ret relative to Yes) it was 2.07; against Abl (Abl relative to Yes) it was 10.0; against EGFR (EGFR relative to Yes), over 10.0; on Src kinase (Src relative to Yes), 6.22. The 50% inhibitory concentration (IC50) on Yes (Yes, error is standard deviation) is 0.895 µM; against Ret (Ret, error is standard deviation), 1.86 µM; against Abl (Abl, error is standard deviation), over 10 µM; against EGFR (EGFR, error is standard deviation) it was over 10 µM; against Src kinase, 5.57 µM. For the same molecule, the “S(40%)” value in data set [2] (1000 nM) came out at 0.11; in data set [2] (5000 nM), 0.44. For the same molecule, the “augmentation of 5's inherent selectivity” value in data set [2] (Ret over Abl and Src) is reported as 4 fold.
As to `COc1ccc(Cl)c(-c2c(Cl)n(C3CCCC3)c3ncnc(N)c23)c1` [Compound 1e, 6-chloro-5-(2-chloro-5-methoxyphenyl)-7-cyclopentyl-7H-pyrrolo[2,3-d]pyrimidin-4-amine], in [1], the “Barrier to Rotation” value is 27.2 kcal/mol and the “Barrier to Rotation kobs” value was determined as 1.24E−04.
